The source of these data is the supplement of paper PMC8024199.

Molecules are shown by their SMILES. ± gives the standard deviation of the averaged measurements.

What all share (assay): drug sensitivity score (DSS) (DSS score); higher = more sensitive (stronger growth inhibition); extreme values may be limits of the assay
Test [1] has as its system Ba/F3 P210-BCR-ABL1 RUNX1-/- (mouse). A digest of the protocol:
(§1)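 Each value is a drug sensitivity score derived from CellTiter-Glo luminescence scaled between vehicle and positive-control wells. Mouse Ba/F3 clones, CRISPR/Cas9-edited at a target exon or edited controls, were seeded at 10,000 cells per well in RPMI with 10% FBS and treated for 72 h at 37 °C and 5% CO2. Compounds from a 528-compound library were tested at five concentrations over a 10,000-fold range, and scores were averaged over two replicates.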

In test [2] the test system is Ba/F3 P210-BCR-ABL1 RUNX1-/mut (mouse). A digest of the protocol:
as §1

In test [3] the test system is Ba/F3 P210-BCR-ABL1 RUNX1wt/wt control (mouse). In a few lines: as §1

For the compound `CC[C@@H]1[C@H](F)C(=O)N[C@@H]1COc1nccc2cc(C(N)=O)c(OC)cc12`, the results for the drug sensitivity score in test [1], in test [2] and in test [3] were 1.3 ± 0.42, 0.9 ± 1.3 and 0.25 ± 0.35, respectively.
On the same counts, the results for `CNS(=O)(=O)Nc1nccc(Cc2c(C)c3ccc(Oc4ncccn4)cc3oc2=O)c1F` are 2.4 ± 0.14, 0.3 ± 0.42 and 0.
Take `CONC(=O)c1ccccc1Nc1cc(Nc2cc(C)nn2C(C)C)ncc1Cl`: the drug sensitivity score in test [1] is 0.15 ± 0.21; in test [2] it was 0.15 ± 0.21; in test [3], 0.
On to `CO[C@@H](C)Cn1c(=O)n(C)c2cnc3ccc(-c4cncc(C(C)(C)O)c4)cc3c21`, for which the drug sensitivity score in test [1] worked out at 12.9 ± 0.14; in test [2], 14.3 ± 1.4; in test [3], 10.25 ± 0.071.
On to `C[C@H]1C[C@@H](n2c(Nc3ccc(OC(F)(F)F)cc3)nc3cc(CCC(=O)O)ccc32)CC(C)(C)C1`, for which the results for the drug sensitivity score in test [1], in test [2] and in test [3] were 0.8 ± 1.1, 1.4 ± 2 and 0, respectively.
For `Cc1c(-c2c(-c3ccc(F)o3)sc3ncnc(O[C@H](Cc4ccccc4OCc4ccnn4CC(F)(F)F)C(=O)O)c23)ccc(OCCN2CCN(C)CC2)c1Cl`, the drug sensitivity score was found to be 1.7 ± 2.4 in test [1], 3.45 ± 4.9 in test [2] and 0 in test [3].
Take `Cn1cc(-c2ccc(F)c(C(F)(F)F)c2)nc1C1CCN(c2ncnc3[nH]ncc23)CC1`: the values for the drug sensitivity score in test [1], in test [2] and in test [3] were 1.55 ± 1.3, 0.7 ± 0.99 and 0, respectively.
Regarding `Cn1cc(C2=Nc3cc(NC(=O)C(N)C4CCCCC4)cc4c3C2=CNNC4=O)cn1` (stereo not given), the drug sensitivity score in test [1] worked out at 18.2 ± 0.14; in test [2], 16 ± 0.42; in test [3] it was 7.95 ± 1.1.
For the compound `O=C1Cc2cc(C(=O)NC3C[C@H]4CC[C@@H](C3)N4S(=O)(=O)CC3CCN(CCCC(F)(F)F)CC3)c(Cl)cc2N1` (stereo not given in full), the drug sensitivity score in test [1] turned out to be 0; in test [2] it was 0.05 ± 0.071; in test [3] it was 1.35 ± 1.9.
Turning to `COc1ccc(C[C@H](NC(=O)[C@H](C)NC(=O)CN2CCOCC2)C(=O)N[C@@H](Cc2ccccc2)C(=O)C2(C)CO2)cc1` (stereo in doubt) [ONX-0914], the drug sensitivity score was determined as 22.05 ± 0.21 in test [1], 23.2 ± 2.6 in test [2] and 17.8 ± 0.28 in test [3].
Regarding `Cn1cc(C[C@@H](N)C(=O)O)c2ccccc21` [1-methyl-D-tryptophan], the drug sensitivity score in test [1], in test [2] and in test [3] was 0 each time.
Regarding `CC/C(=C(\c1ccc(O)cc1)c1ccc(OCCN(C)C)cc1)c1ccccc1` [4-hydroxytamoxifen], the results for the drug sensitivity score in test [1], in test [2] and in test [3] were 8.2 ± 0.42, 8.3 ± 1.1 and 8.6 ± 0.28, respectively.
On the same counts, the results for `Nc1ncnc2c1nc(N)n2[C@@H]1O[C@H](CO)[C@@H](O)[C@H]1O` [8-amino-adenosine] are 19.7 ± 0.42, 15.8 ± 2.4 and 9.4 ± 0.85.
On the same counts, the results for `Nc1ncnc2c1nc(Cl)n2[C@@H]1O[C@H](CO)[C@@H](O)[C@H]1O` [8-chloro-adenosine] are 15.7 ± 1.1, 13.8 ± 1.3 and 7.95 ± 0.21.
On the same counts, the results for `COc1cc2c(cc1OCCCN1CCCC1)N=C(N)C21CCC1` [A-366] are 6.1 ± 0.57, 6.5 ± 3 and 0.
Regarding `C[C@H](Nc1ncnc2[nH]cnc12)c1cc2ccc(F)cc2nc1-c1ccccn1` [AMG319], the drug sensitivity score was determined as 0.15 ± 0.21 in test [1], 1.1 ± 1.6 in test [2] and 0 in test [3].
On the same counts, the results for `CC(C)[C@@H](CS(=O)(=O)C(C)C)N1C(=O)[C@@](C)(CC(=O)O)C[C@H](c2cccc(Cl)c2)[C@H]1c1ccc(Cl)cc1` [AMG-232] are 12.7 ± 2.3, 11.2 ± 1.6 and 3.7 ± 0.28.
Regarding `COCCOc1cnc2ccn([C@H](C)c3nnc4c(F)cc(-c5cnn(C)c5)cn34)c(=O)c2c1` [AMG-337], the drug sensitivity score in test [1], in test [2] and in test [3] was 0 throughout.
On to `CC1CCC(n2c3cnccc3c3cnc(Nc4ccc5c(n4)CCN(C(=O)CO)C5)nc32)CC1` (stereo not given) [AMG-925], for which the drug sensitivity score in test [1] was 4.2 ± 0.42; in test [2] it was 1.8 ± 2.1; in test [3], 0.
On the same counts, the results for `COCC1(CO)C(=O)C2CCN1CC2` (stereo not given) [APR-246] are 1.05 ± 1.5, 1.4 ± 2 and 0.35 ± 0.49.
On the same counts, the results for `CC(C)[C@H](C(=O)Nc1ccc(C(=O)NO)cc1)c1ccccc1` [AR-42] are 20.3 ± 0.85, 17.9 ± 1.1 and 16.5 ± 0.14.
On the same counts, the results for `Cc1sc2c(c1C)C(c1ccc(Cl)cc1)=N[C@@H](CC(=O)Nc1ccc(OCCOCCOCCOCCNc3cccc4c3C(=O)N(C3CCC(=O)NC3=O)C4=O)cc1)c1nnc(C)n1-2` (stereo not given in full) [ARV-825] are 19.8 ± 0.14, 18.7 ± 3.1 and 17.9 ± 0.78.
For `COc1cc(N2CCC(N3CCN(C)CC3)CC2)ccc1Nc1ncnc(Nc2ccccc2S(=O)(=O)C(C)C)n1` [ASP3026], the drug sensitivity score came to 3.95 ± 1.6 in test [1], 3.9 ± 3.7 in test [2] and 1.05 ± 0.21 in test [3].
On the same counts, the results for `O=C(NC1CCNCC1)c1n[nH]cc1NC(=O)c1c(Cl)cccc1Cl` [AT7519] are 11.7 ± 3.6, 13.6 ± 4 and 2.8 ± 0.42.
On the same counts, the results for `CN[C@@H](C)C(=O)N[C@H]1CN(C(=O)CC(C)C)CC[C@H]2CC[C@@H](C(=O)NC(c3ccccc3)c3ccccc3)N2C1=O` [AT-406] are 18.4 ± 1.8, 4.4 ± 6.2 and 13 ± 1.4.
On the same counts, the results for `CC[C@H](CC#N)OC(=O)N[C@@H](C)c1cccc(NC(=O)Nc2ccc(-c3cnco3)c(OC)c2)c1` [AVN944] are 25.9 ± 0.42, 24.95 ± 0.21 and 21.7 ± 1.6.
Turning to `COc1cc(N2CCN(C)CC2)ccc1Nc1nccc(-c2cn(C)c3cnccc23)n1` [AZ191], the figures for the drug sensitivity score in test [1], in test [2] and in test [3] were 7.2 ± 1.4, 7.45 ± 2.2 and 2.5 ± 0.71, respectively.
As for `CN(C)CCCOc1ccc(-c2ccc3ncc4c(c3c2)n(C2CCOCC2)c(=O)n4C)cn1` [AZD0156], the results for the drug sensitivity score in test [1], in test [2] and in test [3] were 6.8 ± 1.7, 7.6 ± 0.14 and 0, respectively.
On the same counts, the results for `N[C@@H]1CCCN(c2c(/C=C3\SC(=O)NC3=O)cccc2-c2ccccc2)C1` [AZD1208] are 11.8 ± 0.35, 7.05 ± 2.5 and 2.4 ± 0.42.
On the same counts, the results for `Cc1cc(Nc2nc(N[C@@H](C)c3ncc(F)cn3)ncc2Cl)[nH]n1` [AZD1480] are 0, 0 and 0.
On to `C=CCn1c(=O)c2cnc(Nc3ccc(N4CCN(C)CC4)cc3)nc2n1-c1cccc(C(C)(C)O)n1` [AZD1775], for which the drug sensitivity score in test [1] is 22.8 ± 3.5; in test [2] it was 20.8 ± 1.5; in test [3], 19.1 ± 0.14.
Turning to `COc1cc2ncnc(Nc3cccc(Cl)c3F)c2cc1OC(=O)N1CCN(C)C[C@H]1C` [AZD3759], the drug sensitivity score in test [1], in test [2] and in test [3] was 0 throughout.
For the compound `Cc1[nH]nc(C(F)(F)F)c1Cc1sc2c(c1C(=O)N1C[C@](C)(O)CO1)c(=O)n(C)c(=O)n2C(C)C` [AZD3965], the drug sensitivity score came out at 9.05 ± 3.5 in test [1], 6.3 ± 0.99 in test [2] and 0 in test [3].
On the same counts, the results for `COc1cc(CCc2cc(NC(=O)c3ccc(N4CC(C)NC(C)C4)cc3)n[nH]2)cc(OC)c1` (stereo not given) [AZD4547] are 0.2 ± 0.28, 0 and 0.
With `C[C@@H]1COCCN1c1cc(C2([S@](C)(=N)=O)CC2)nc(-c2cc[nH]c3nccc2-3)n1` [AZD6738], the figures for the drug sensitivity score in test [1], in test [2] and in test [3] were 20.1 ± 1.4, 19.2 ± 0.71 and 18 ± 0.57, respectively.
On the same counts, the results for `CN(C)C(=O)c1ccc(S(=O)(=O)c2ccc(NC(=O)[C@@](C)(O)C(F)(F)F)c(Cl)c2)cc1` [AZD7545] are 0.65 ± 0.071, 0 and 0.
Consider `NC(=O)Nc1cc(-c2cccc(F)c2)sc1C(=O)N[C@H]1CCCNC1` [AZD7762], for which the drug sensitivity score in test [1] was 9.8 ± 2; in test [2] it was 7.8 ± 2.1; in test [3] it was 7.1 ± 0.71.
On the same counts, the results for `N#Cc1ccc2[nH]c(O)c(-c3ccc(CN4CCOCC4)cn3)c2c1` [AZD-1080] are 0, 0 and 0.
With `Cc1ncc(-c2ccnc(Nc3ccc(S(C)(=O)=O)cc3)n2)n1C(C)C` [AZD-5438], the drug sensitivity score in test [1] is 5.5 ± 0.99; in test [2], 8.8 ± 0.99; in test [3], 9.8 ± 0.14.
On the same counts, the results for `Cc1cc([C@@H](C)Nc2ccccc2C(=O)O)c2nc(N3CCOCC3)cc(=O)n2c1` [AZD-6482] are 0.1 ± 0.14, 0.75 ± 1.1 and 0.15 ± 0.21.
